Assay results reported in paper PMC8119466, “A screen of FDA-approved drugs identifies inhibitors of protein tyrosine phosphatase 4A3 (PTP4A3 or PRL-3)” (Scientific Reports, 2021).
Structures can show the parent of a compound that is named as a salt. Where two headings read alike, the source gives them in different places.

Tests used:
Assay type in all cases: biochemical
recombinant PRL-1 = molecular target: T1, recombinant PRL-1 (Homo sapiens, UniProt Q93096); assay: In vitro phosphatase assay (DiFMUP hydrolysis), PRL-1; also: test concentration or dose not given here
T1 construct: 6xHis (N, cleaved yes); made in house; host or cells: E. coli One Shot BL21 Star
T1 sequence (Q93096 1-173): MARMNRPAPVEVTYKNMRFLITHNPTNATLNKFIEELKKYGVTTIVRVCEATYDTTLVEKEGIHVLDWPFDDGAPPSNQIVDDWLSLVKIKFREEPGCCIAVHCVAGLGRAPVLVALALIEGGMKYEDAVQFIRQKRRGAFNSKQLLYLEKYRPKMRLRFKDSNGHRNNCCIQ

recombinant PRL-3 = molecular target: T2, recombinant PRL-3 (Homo sapiens, UniProt O75365); assay: In vitro phosphatase assay (DiFMUP hydrolysis), PRL-3; also: test concentration or dose not given here
T2 construct: 6xHis (N, cleaved yes); made in house; host or cells: E. coli One Shot BL21 Star
T2 sequence (O75365 whole entry): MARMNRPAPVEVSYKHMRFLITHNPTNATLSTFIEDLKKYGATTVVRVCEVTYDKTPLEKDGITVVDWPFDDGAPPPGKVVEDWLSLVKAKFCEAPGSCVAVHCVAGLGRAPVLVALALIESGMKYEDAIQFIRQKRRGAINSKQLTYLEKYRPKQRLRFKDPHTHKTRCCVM

recombinant PRL-2 = molecular target: T3, recombinant PRL-2 (Homo sapiens, UniProt Q12974); assay: In vitro phosphatase assay (DiFMUP hydrolysis), PRL-2;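 also: PRL-2 activity read as DiFMUP hydrolysis after 20 min at room temperature with drug, enzyme first pre-reduced at 4 °C for 20 min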
T3 construct: 6xHis (N, cleaved yes); made in house; host or cells: E. coli One Shot BL21 Star
T3 sequence (Q12974 1-167): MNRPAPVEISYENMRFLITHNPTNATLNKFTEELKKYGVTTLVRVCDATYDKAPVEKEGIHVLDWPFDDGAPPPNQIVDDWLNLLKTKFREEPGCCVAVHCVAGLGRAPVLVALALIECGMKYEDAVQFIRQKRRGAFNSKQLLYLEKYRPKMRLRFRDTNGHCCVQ

[1] = FDA-approved drug screen, activity compared to DMSO
[2] = FDA-approved drug screen, compared to DMSO

Compound	% Phosphatase Activity (compared to DMSO) PRL-1 (recombinant PRL-1; [2]) [%]	% Phosphatase Activity (compared to DMSO) PRL-3 (recombinant PRL-3; [2]) [%]	% Phosphatase Activity (compared to DMSO) PRL-2 (recombinant PRL-2; [2]) [%]	further results
CC[C@H]1OC(=O)C[C@@H](O)[C@H](C)[C@@H](O[C@@H]2O[C@H](C)[C@@H](O)[C@H](N(C)C)[C@H]2O)[C@@H](CCN2C[C@H](C)C[C@H](C)C2)C[C@@H](C)C(=O)/C=C/C(C)=C/[C@@H]1CO[C@@H]1O[C@H](C)[C@@H](O)[C@@H](OC)[C@H]1OC [Tilmicosin]				% Phosphatase Activity (compared to DMSO) PRL-1 (recombinant PRL-1; [1]): 89%; % Phosphatase Activity (compared to DMSO) PRL-3 (recombinant PRL-3; [1]): 71%; % Phosphatase Activity (compared to DMSO) PRL-2 (recombinant PRL-2; [1]): 88%
C[N+](C)(C)CC(O)CC(=O)O.[Cl-] (racemic) [DL-Carnitine HCl]	100	85	94	
C=CC1=C(C(=O)O)N2C(=O)[C@@H](NC(=O)/C(=N\O)c3csc(N)n3)[C@H]2SC1 [Cefdinir]	109	88	110	
CCN1CCCC1CNC(=O)c1cc(S(=O)(=O)CC)c(N)cc1OC (stereo not drawn) [Amisulpride]	94	74	89	
NCCCNCCSP(=O)(O)O [Amifostine]	110	114	108	
N#CC1(c2ccc(NC(=O)c3cccnc3NCc3ccncc3)cc2)CCCC1 [Apatinib]	100	88	106	
Nafarelin Acetate	91	91	91	
CCCNCC(O)COc1ccccc1C(=O)CCc1ccccc1 (stereo not drawn) [Propafenone HCl]	98	79	114	
C[C@H]1C[C@H]2[C@@H]3CCC4=CC(=O)C=C[C@]4(C)[C@H]3C(=O)C[C@]2(C)[C@@]1(O)C(=O)CO [Meprednisone]	99	78	97	
C[C@H](Cc1cc2c(c(C(N)=O)c1)N(CCCO)CC2)NCCOc1ccccc1OCC(F)(F)F [Silodosin]				% Phosphatase Activity (compared to DMSO) PRL-1 (recombinant PRL-1; [1]): 117%; % Phosphatase Activity (compared to DMSO) PRL-3 (recombinant PRL-3; [1]): 95%; % Phosphatase Activity (compared to DMSO) PRL-2 (recombinant PRL-2; [1]): 104%
CCOc1nc2cccc(C(=O)OCc3oc(=O)oc3C)c2n1Cc1ccc(-c2ccccc2-c2noc(=O)[nH]2)cc1 [Azilsartan Medoxomil]	91	90	96	
CS(=O)(=O)CCNCc1ccc(-c2ccc3ncnc(Nc4ccc(OCc5cccc(F)c5)c(Cl)c4)c3c2)o1 [Lapatinib]				% Phosphatase Activity (compared to DMSO) PRL-1 (recombinant PRL-1): 207%; % Phosphatase Activity (compared to DMSO) PRL-3 (recombinant PRL-3): 121%; % Phosphatase Activity (compared to DMSO) PRL-2 (recombinant PRL-2): 207%
C=C[C@]1(C)C[C@@H](OC(=O)CS[C@@H]2C[C@H]3CC[C@@H](C2)N3C)[C@]2(C)[C@H](C)CC[C@]3(CCC(=O)[C@H]32)[C@@H](C)[C@@H]1O [Retapamulin]	85	67	123	
COC(=O)C1=C(C)NC(C)=C(C(=O)OCC(C)C)C1c1ccccc1[N+](=O)[O-] (stereo not drawn) [Nisoldipine]	81	85	75	
COc1ccc(-c2nc3ccc(C4=NNC(=O)CC4C)cc3[nH]2)cc1 (stereo not drawn) [Pimobendan]	122	95	118	
CCCCOc1cc(C(=O)OCCN(CC)CC)ccc1N [Oxybuprocaine HCl]	97	93	103	
Cn1c(=O)c2c(ncn2CC2OCCO2)n(C)c1=O [Doxofylline]	103	79	109	

Compound	% Phosphatase Activity (compared to DMSO) PRL-1 (recombinant PRL-1; [2]) [%]	% Phosphatase Activity (compared to DMSO) PRL-3 (recombinant PRL-3; [2]) [%]	% Phosphatase Activity (compared to DMSO) PRL-2 (recombinant PRL-2; [2]) [%]	further results
CC(=O)Oc1ccc(C(c2ccc(OC(C)=O)cc2)c2ccccn2)cc1 [Bisacodyl]	88	66	104	
Nc1ccc(C(=O)NCC(=O)[O-])cc1.O.[Na+] [Sodium 4-aminohippurate Hydrate]				% Phosphatase Activity (compared to DMSO) PRL-1 (recombinant PRL-1; [1]): 84%; % Phosphatase Activity (compared to DMSO) PRL-3 (recombinant PRL-3; [1]): 84%; % Phosphatase Activity (compared to DMSO) PRL-2 (recombinant PRL-2; [1]): 87%
CCOC(N)=O [Urethane]				% Phosphatase Activity (compared to DMSO) PRL-1 (recombinant PRL-1; [1]): 99%; % Phosphatase Activity (compared to DMSO) PRL-3 (recombinant PRL-3; [1]): 91%; % Phosphatase Activity (compared to DMSO) PRL-2 (recombinant PRL-2; [1]): 100%
NC(N)=Nc1nc(CSCCC(N)=NS(N)(=O)=O)cs1 [Famotidine]				% Phosphatase Activity (compared to DMSO) PRL-1 (recombinant PRL-1): 110%; % Phosphatase Activity (compared to DMSO) PRL-3 (recombinant PRL-3): 86%; % Phosphatase Activity (compared to DMSO) PRL-2 (recombinant PRL-2): 115%
CCS(=O)(=O)N1CCN(c2ccc(Nc3ncc(C(N)=O)c(NC4CC4)n3)cc2)CC1 [Cerdulatinib (PRT062070, PRT2070)]	95	95	82	
C[C@@H](CN1CC(=O)NC(=O)C1)N1CC(=O)NC(=O)C1.Cl [Dexrazoxane HCl (ICRF-187, ADR-529)]	97	79	92	
NCC[C@H](O)C(=O)N[C@@H]1C[C@H](N)[C@@H](O[C@H]2O[C@H](CN)[C@@H](O)[C@H](O)[C@H]2O)[C@H](O)[C@H]1O[C@H]1O[C@H](CO)[C@@H](O)[C@H](N)[C@H]1O [Amikacin hydrate]	91	107	95	
Atosiban Acetate	86	90	80	
CN1CCC[C@H]1c1cccnc1.O=C(O)C(O)C(O)C(=O)O.O=C(O)C(O)C(O)C(=O)O [Nicotine Ditartrate]				% Phosphatase Activity (compared to DMSO) PRL-1 (recombinant PRL-1): 95%; % Phosphatase Activity (compared to DMSO) PRL-3 (recombinant PRL-3): 96%; % Phosphatase Activity (compared to DMSO) PRL-2 (recombinant PRL-2): 96%
CC(C)(C)c1ccc(C(O)CCCN2CCC(C(O)(c3ccccc3)c3ccccc3)CC2)cc1 (stereo not drawn) [Terfenadine]				% Phosphatase Activity (compared to DMSO) PRL-1 (recombinant PRL-1; [1]): 96%; % Phosphatase Activity (compared to DMSO) PRL-3 (recombinant PRL-3; [1]): 91%; % Phosphatase Activity (compared to DMSO) PRL-2 (recombinant PRL-2; [1]): 100%
Cc1cc(O)ccc1Cl [Chlorocresol]	89	77	101	
CC(C)CN(C[C@@H](O)[C@H](Cc1ccccc1)NC(=O)O[C@H]1CCOC1)S(=O)(=O)c1ccc(N)cc1 [Amprenavir]	96	77	81	
CC1COc2c(N3CCN(C)CC3)c(F)cc3c(=O)c(C(=O)O)cn1c23 (stereo not drawn) [Ofloxacin]	301	134	271	
Cl.O=C(OCC(O)CO)c1ccccc1Nc1ccnc2cc(Cl)ccc12 (stereo not drawn) [Glafenine HCl]	77	80	71	
O=C([O-])Cc1ccccc1Nc1c(Cl)cccc1Cl.[K+] [Diclofenac Potassium]	115	99	132	
COc1ccc2c(c1)c(CC(=O)OCC(=O)O)c(C)n2C(=O)c1ccc(Cl)cc1 [Acemetacin]	93	94	121	
